Reference: publication PMC8519428, “Structural analysis of the boronic acid β-lactamase inhibitor vaborbactam binding to Pseudomonas aeruginosa penicillin-binding protein 3” (PLoS ONE, 2021)
pIC50: −log10 of the molar value.

Molecular target: T1, penicillin-binding protein 3 (PBP3) (Pseudomonas aeruginosa, UniProt G3XD46)
T1 construct: gene ftsI; final PBP3 model contains residues 57–190, 213–490, and 501–561
Experiment: X-ray crystal structure ([…] Å, soak); also Bocillin competition assay (IC50) and DSF thermal shift (about […] °C)

T1 sequence (G3XD46 50-579): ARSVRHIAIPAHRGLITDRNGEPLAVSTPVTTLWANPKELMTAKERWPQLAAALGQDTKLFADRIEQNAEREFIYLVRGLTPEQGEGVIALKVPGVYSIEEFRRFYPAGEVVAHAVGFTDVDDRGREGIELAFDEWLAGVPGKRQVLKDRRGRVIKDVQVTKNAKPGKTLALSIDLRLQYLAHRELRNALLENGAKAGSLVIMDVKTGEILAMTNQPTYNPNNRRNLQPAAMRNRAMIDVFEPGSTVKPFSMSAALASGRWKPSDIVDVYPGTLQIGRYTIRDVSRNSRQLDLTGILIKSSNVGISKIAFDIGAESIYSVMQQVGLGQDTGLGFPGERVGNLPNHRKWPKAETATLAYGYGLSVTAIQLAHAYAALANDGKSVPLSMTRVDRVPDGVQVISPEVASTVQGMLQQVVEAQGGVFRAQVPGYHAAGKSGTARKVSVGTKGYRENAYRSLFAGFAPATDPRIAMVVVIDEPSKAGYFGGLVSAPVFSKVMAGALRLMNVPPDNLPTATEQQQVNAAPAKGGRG

## O=C(O)C[C@@H]1CC[C@H](NC(=O)Cc2cccs2)B(O)O1 [vaborbactam]
  pIC50: 3.58
